Data on one molecule can be found in patent US20080050448A1, “ANTIMICROBIAL CONJUGATES” (priority 2006, published 2008).

Experiment [1] concerns Staphylococcus aureus NCTC 6571. Nature of the experiment: Lethal photosensitisation of S. aureus by TBO-tiopronin-gold nanoparticle conjugate, white light (and dark controls), viable counting. It is filed as cell-based.
Experiment [2] shares this test system. Briefly: Lethal photosensitisation of S. aureus by gold nanoparticle-photosensitiser mixtures, white light, viable counting. It is filed as cell-based. The procedure: Gold nanoparticles (2.0 nm diameter; British Biocell International) in water (15×10^13 particles per ml) were mixed with an equal volume of an aqueous solution of toluidine blue O (40 μM) and left at room temperature for 15 minutes. 100 μl of the gold-TB solution was added to 100 μl of a suspension of Staphylococcus aureus NCTC 6571 in phosphate buffered saline (PBS) and this was irradiated with white light from a fluorescent white lamp for 10 minutes. Controls consisted of:
(i) TB (final concentration=10 μM) and bacteria, irradiated for the same period of time,
(ii) nanogold (diluted 1:1 with water) and bacteria, irradiated for the same period of time,
(iii) bacteria without TB or nanogold, not irradiated (“control”).
After irradiation, the number of surviving bacteria was determined by viable counting. […] Note that the TB concentration and light energy dose used were designed to give sub-optimal kills so that differences in efficacy of the TB and the TB-nanogold could be discerned. Preliminary experiments using 30 minutes light exposure achieved total kills of the bacterial suspensions in both cases.
Gold nanoparticles of approximately 15 nm in diameter (batches NN1 and NN2 above) were mixed with an equal volume of aqueous toluidine blue O (TB) and left at room temperature for 15 minutes. TB was used at a final concentration of 1, 5, 10, 20 or 50 μM. 100 μl of the TB-gold mixture was added to 100 μl of a suspension of Staphylococcus aureus NCTC 6571 in phosphate buffered saline (PBS) (adjusted to an optical density of 0.05), and samples were irradiated with a fluorescent white light (28 W) for 10 minutes. S. aureus+TB only, and S. aureus+PBS, without photosensitiser or nanogold were used as controls. The final concentration of nanogold used was 1×10^15 particles/ml. After irradiation, the numbers of surviving bacteria were enumerated by viable counting.
The method of Example 2 was repeated using gold nanoparticles of 2 nm diameter (British Biocell International). The final concentration of nanogold used was 4×10^13 particles/ml. […]

For the molecule `Cc1cc2nc3ccc(N(C)C)cc3[s+]c2cc1N.[Cl-]` [TB only, toluidine blue O], the “effect on S. aureus” value in experiment [1] (irradiated with white light for any length of time (15, 30, 45 minutes)) is recorded as “no effect”. In experiment [1] (white light 30 mins), the “concentration at which significant kills of the organism were exhibited (only at this concentration)” value stood at 2.0 μm. Moreover, the “% Kill” value in experiment [2] (10 min 28 W fluorescent white lamp, 2.0 nm gold, TB final 10 μM) is 93.7%. Moreover, the “kill of the bacterial suspension” value in experiment [2] (preliminary experiments, 30 minutes light exposure) is listed as “total kills”. In addition, in experiment [2] (surviving bacteria after 10 min 28 W fluorescent white lamp, 2.0 nm gold, TB final 10 μM), the “S. aureus (cfu/ml)” value is 8570000 cfu/ml.
